Assay results reported in patent US10517919B2, “Selective Nox-1 inhibitor peptides and uses thereof” (UNIVERSITE DE BORDEAUX, priority 2013, dated 2019).

Experiments:
[1] = system: primary human keratinocytes; experiment: ROS level with CM-H2DCF-DA probes in keratinocytes; type: cell-based; conditions: 10 or 50 μM, 24 h
Protocol: (§1) FIGS. 2A and 2B: show the relative ROS level as measured in primary human keratinocytes and HT29 (human colon adenocarcinoma cell line) treated with 10 or 50 μM of peptide inhibitor for 24 h using the CM-H2DCF-DA probes. Cells were treated with 10 μM of the peptides A (SEQ ID NO: 41), B (SEQ ID NO: 42), and C (SEQ ID NO: 43), and the ROS level was measured 24 h post-treatment. ROS level was normalized to non-treated cells (NTC) (*P<0.05).
(§2) ROS level in primary human keratinocytes treated with 10 or 50 μM of peptides A, B, and C for 24 h were assayed using the CM-H2DCF-DA probes (FIG. 2A).

[2] = system: human colon adenocarcinoma HT29 cell line; experiment: ROS level in HT29 cells, in which Nox1 is the only active Nox; type: cell-based; conditions: 24 h post-treatment
Protocol: as §1, §2

Nox1 = molecular target: T1, Nox1 (Homo sapiens, UniProt Q86UR1); experiment: ROS level in shCtrl, shNox1 or shNox2-transduced keratinocytes; type: cell-based; conditions: shNox1-transduced keratinocytes, 24 h post-treatment, compared to control peptide C
T1 construct: endogenous in cells; host or cells: keratinocytes transduced with lentiviral shCtrl, shNox1 or shNox2
T1 sequence (Q86UR1 1-476): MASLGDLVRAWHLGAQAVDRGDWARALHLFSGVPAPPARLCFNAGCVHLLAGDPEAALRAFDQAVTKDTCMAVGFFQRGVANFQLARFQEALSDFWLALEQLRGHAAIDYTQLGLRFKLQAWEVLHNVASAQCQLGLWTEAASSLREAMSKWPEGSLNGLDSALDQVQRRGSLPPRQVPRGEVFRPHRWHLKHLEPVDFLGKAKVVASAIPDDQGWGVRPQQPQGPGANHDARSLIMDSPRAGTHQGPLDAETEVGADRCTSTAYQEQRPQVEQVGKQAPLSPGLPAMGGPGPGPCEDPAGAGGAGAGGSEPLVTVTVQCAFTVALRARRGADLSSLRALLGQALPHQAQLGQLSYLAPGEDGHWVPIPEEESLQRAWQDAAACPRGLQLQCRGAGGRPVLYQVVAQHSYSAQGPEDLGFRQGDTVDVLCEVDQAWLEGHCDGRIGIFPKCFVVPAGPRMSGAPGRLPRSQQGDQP
Protocol: (§3) FIGS. 3A, 3B and 3C: show inhibition of endogenous Nox1 and Nox2 protein expression using lentivirus-mediated expression of shRNA against Nox1 and Nox2. Keratinocytes were transduced with different shRNA (shNox1, shNox2 and the control shCtrl). Transduction efficacy was checked by western blotting analysis. […] Transduction efficacy was checked by western blotting analysis. Relative ROS level (3B) and Nox activity (3C) were measured 24 h post-treatment with Nox1 inhibitor peptide A compared to control peptide C. ROS level was normalized to counterpart peptide C-treated cells. NADPH oxidase activity was measured by relative luminescence unit (RLU) per μg of proteins. *P<0.05. […] In FIG. 3C NADPH oxidase activity was measured in shCtrl and shNox1-transduced cells treated with or without Nox1 inhibitor peptide A.
(§4) To examine the specificity of these peptides, the expression of endogenous Nox1 and Nox2 protein was inhibited using lentivirus-mediated expression of shRNA against Nox1 and Nox2. […] Further, NADPH oxidase activity was measured in shCtrl and shNox1-transduced cells treated with or without peptide A (FIG. 3C).

NADPH oxidase [3] = experiment: NADPH oxidase activity in shCtrl and shNox1-transduced keratinocytes; type: cell-based, human; conditions: peptide A-treated cells versus shNox1-transduced cells and shNox1-transduced cells treated with peptide A
Protocol: as §3, §4

[4] = molecular target: T2, Nox1 activity in mouse skin (Mus musculus, UniProt Q8CJ00); experiment: NADPH oxidase activity in mouse skin after topical treatment; type: in vivo, SKH-1 mice; conditions: 3 and 12 mg/kg
T2 construct: from tissue; host or cells: skin biopsies of SKH-1 mice
T2 sequence (Q8CJ00 1-444): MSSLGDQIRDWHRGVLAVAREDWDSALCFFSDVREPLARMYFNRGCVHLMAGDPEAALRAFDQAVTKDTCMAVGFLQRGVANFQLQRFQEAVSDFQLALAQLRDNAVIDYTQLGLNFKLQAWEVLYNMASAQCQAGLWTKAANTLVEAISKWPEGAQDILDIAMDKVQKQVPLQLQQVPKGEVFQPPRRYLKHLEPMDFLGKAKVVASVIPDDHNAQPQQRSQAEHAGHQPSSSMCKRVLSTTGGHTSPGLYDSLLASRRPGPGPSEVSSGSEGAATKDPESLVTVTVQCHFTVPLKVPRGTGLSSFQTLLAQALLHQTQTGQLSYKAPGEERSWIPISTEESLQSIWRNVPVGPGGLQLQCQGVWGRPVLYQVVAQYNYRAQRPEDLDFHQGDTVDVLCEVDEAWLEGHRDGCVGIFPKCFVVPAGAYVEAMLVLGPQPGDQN
Protocol: (§5) FIGS. 5A and 5B: show effect of peptide A on Nox1 activity in mouse skin. SKH-1 mice were treated topically with different doses: 0.4, 3 and 12 mg/kg (3 mice per dose) of Nox1 inhibitor peptide A. Skin biopsies were harvested 2 h, 24 h, 48 h and 72 h post-treatment and the NADPH oxidase activity was measured (RLU/μg of proteins). Results was normalized to the non-treated (NT) mice and expressed as % of inhibition of Nox activity. (B) Mice were treated topically with 3 and 12 mg/kg of peptide A (2 mice per dose). 10 min after treatment, mice were exposed to UVB (150 mJ/cm^2). Skin biopsies were harvested 2 h, 24 h. At 46 h after first treatment, mice were treated again with the same concentration of peptide A and exposed to UVB 10 min later. Skin biopsies were then harvested at 2 h, 24 h (i.e. 48 and 72 h after first treatment, respectively). The NADPH oxidase activity was measured (RLU/μg of proteins) and was normalized to the non-treated (NT) and non-irradiated mice.
(§6) To examine the effect of peptide A on Nox1 activity in mouse skin, SKH-1 mice were treated topically with different doses of peptide A (FIG. 5A). […] The effect of peptide A on UVB irradiated mice was then tested (FIG. 5B).

[5] = system: UVB-induced Nox activation; experiment: UVB-induced Nox activation in skin of irradiated mice; type: in vivo, SKH-1 mice; conditions: topical 3 and 12 mg/kg, 10 min prior to irradiation (UVB 150 mJ/cm^2)
Protocol: as §5, §6

[6] = system: UVB-induced squamous cell carcinomas (SCC); experiment: UVB-induced squamous cell carcinoma induction (photocarcinogenesis); type: in vivo, SKH-1 hairless mice; conditions: for tumors with a volume less than 5 mm^3: 3 mg/kg topical, week 29
Protocol: FIGS. 6A, 6B and 6C: show the photoprotective effects of peptide A on UVB-induced squamous cell carcinomas (SCC) induction using SKH-1 hairless mice. Mice were treated topically with 3 mg/kg of peptide A or control peptide, and irradiated with UVB 10 min later three times per week. The number (6A) and the size (6B) of tumors were assessed once a week during 29 weeks (6C). The tumor volume distribution was evaluated at week 29. Clearly there is a considerable reduction in numbers and size of UVB-induced tumors in SKH-1 mice administrated topically with peptide A.
To examine the photoprotective effects of peptide A, the effect of peptide A administration on UVB-induced squamous cell carcinomas (SCC) induction using SKH-1 hairless mice, a well-defined murine model for the study of photocarcinogenesis that develops skin tumors including benign papilloma and malignant SCC. The validity of this model is exemplified by the remarkable similarity between UVB-induced carcinogenesis in these mice and the UV carcinogenesis pathway in human skin. SKH-1 hairless mice have yield extremely valuable data on the dose, time-course and the action spectrum for skin tumorigenesis following chronic UV B irradiation. In this study, peptide A (3 mg/kg) was administrated three times per week and 10 minutes prior to each UV B exposure.

NADPH oxidase [7] = experiment: NADPH oxidase activity in non-tumor bearing skin and UVB-induced tumors after 29 weeks; type: in vivo, SKH-1 mice; conditions: compared with vehicle treated mice, after 29 weeks of treatment
Protocol: Mice were sacrificed after 29 weeks of treatment. Non-tumor bearing skin and tumors were harvested from irradiated mice treated with peptide A or the vehicle. NADPH oxidase activity was measured as RLU/μg of proteins in non-tumor bearing skin and UVB-induced tumors. Relative inhibition of Nox activity in non-tumor bearing skin and tumors was evaluated following arbitrary setting the Nox activity in non-tumor bearing skin and tumors taken from vehicle treated-mice to 100%. Results were then expressed as the average percentage of vehicle-treated mice.
The activity of NADPH oxidase was reduced 70% in non-tumor bearing skin and 54% in tumors isolated from mice treated with peptide A compared with vehicle treated mice (FIG. 7).

XPC deficient mice = experiment: Premature skin aging in XPC deficient mice (progerin, OXPHOS, proteomics); type: in vivo
Protocol: FIGS. 11A and 11B: show the effect of NOX1 inhibitor peptide A (InhNOX) on progerin expression in skin biopsies of young XPC^+/+ and XPC^−/− mice. One month old mice were treated topically with 3 mg/kg (6 mice per group) Nox1 inhibitor peptide A (InhNOX) or control peptide (vehicle) three times per week for three months. (A) Total protein extracts of skin biopsies were assessed for progerin by Western blot analysis. β-actin was used as a loading control. (B) The protein bands corresponding to progerin was quantified and normalized with β-actin. The average density±SD from six mice in each group is presented as the relative value to the density in young wild type mice.
FIGS. 12A and 12B: show the effects of Nox1 inhibitor peptide A (InhNOX) on protein expression of OXPHOS complexes in skin biopsies of young XPC^+/+ and XPC^−/− mice. One month old mice were treated topically with 3 mg/kg (6 mice per group) Nox1 inhibitor peptide A (InhNOX) or control peptide (vehicle) three times per week for three months. (A) Expression of OXPHOS complexes were assessed by western blot analysis. β-actin was used as a loading control. (B) The bands corresponding to different OXPHOS complexes were quantified and normalized with β-actin. The average density±SD from six mice in each group is presented as the relative value to the density in young wild type mice.
To assess the anti-aging effects of Nox1 inhibitor peptide A (SEQ ID NO: 41) the accelerated aging in XPC deficient mice was first evaluated. To this end, the expression of progerin, a truncated version of lamin A protein involved in progeria syndrome, has been evaluated in 4 months old (young) and 1.5 year old (old) proficient and deficient XPC mice (XPC^+/+ and XPC^−/−, respectively) (FIGS. 9A and 9B).
To investigate the role of NADPH oxidase activity on premature aging in XPC deficient mice, one month old XPC^+/+ and XPC^−/− mice have been treated with NOX1 inhibitor peptide or vehicle three times per week for three months. The progerin expression (FIG. 11), OXPHOS protein expression (FIG. 12) and metabolism profile in murine epidermal cells have been then evaluated. […] To have a general idea on the effects of NOX1 peptide inhibitor on the XPC knockdown-induced metabolism alteration, proteomic approach has been used.

NADPH oxidase [8] = experiment: NADPH oxidase activity in keratinocytes treated with peptide A variants; type: cell-based; conditions: 10 μM, 24 h post-treatment, normalized to scramble treated cells
Protocol: Keratinocytes were treated with 10 μM of the indicated peptides: scramble control peptide P1 (SEQ ID NO: 57), peptide A with tat sequence (SEQ ID NO: 41) or without the tat sequence (SEQ ID NO:20); shorter peptides P7 (SEQ ID NO: 2) and P8 (SEQ ID NO: 56) (FIG. 8A). The NADPH oxidase activity was measured 24 h post-treatment (RLU/μg of proteins) and was normalized to the scramble treated cells (FIG. 8B).

[9] = 3 mg/kg topical three times per week, 10 minutes prior to each UVB exposure, 29 weeks
[10] = XPC^−/− mice, 3 mg/kg topical three times per week for three months

## tat-I-Q-S-R-C-C-T-V-T (RKKRRQRRRIQSRCCTVT; FUSION PEPTIDE) [peptide B, target SH3-NoxA1]
[1]
  ROS level: significant decrease
[2]
  ROS level: significant reduction

## tat-P-P-T-V-P-T-R-P-S (RKKRRQRRRPPTVPTRPS; FUSION PEPTIDE) [peptide A, target SH3-NoxA1]
[1]
  ROS level: significant decrease
[2]
  ROS level: significant reduction
Nox1
  steady-state levels of ROS in shNox1-transduced cells: no effect
NADPH oxidase [3]
  NADPH oxidase activity: Equally decreased
[4]
  duration of efficient inhibition of Nox activity in skin: up to 3 days
[5]
  UVB-induced Nox activation: efficiently blocked
[6]; [9]
  decrease in tumor number: 2.3 times
  decrease in tumor size: 2.9 times
[6]
  tumors with a volume less than 5 mm^3: 57%
NADPH oxidase [7]
  reduction of NADPH oxidase activity in non-tumor bearing skin: 70%
  reduction of NADPH oxidase activity in tumors: 54%
XPC deficient mice; XPC deficient mice
  XPC deficiency-induced premature aging: blocked
XPC deficient mice; XPC deficient mice, three times per week for three months
  XPC deficiency-induced metabolic alteration (proteomic approach): eliminated the effects
XPC deficient mice; [10]
  expression of OXPHOS complexes I, II and III: abrogated the decrease
  protein expression of progerin in skin: blocked the increase

## tat-C-L-R-I-T-R-Q-S-R [peptide C, reference compound]
[6]
  tumors with a volume less than 5 mm^3: 8%

## PPTVPTR (HOMO SAPIENS) [P7, shorter peptide derived from peptide A]
NADPH oxidase [8]
  inhibition of NADPH oxidase activity: efficiently inhibit
XPC deficient mice; XPC deficient mice
  XPC deficiency-induced premature aging: blocked
  all experiments of Example 8 repeated, compared with peptide A: the same results have been obtained

## P8: shorter peptide derived from peptide A, sequence not printed (PPTVPTRP; … PEPTIDIC FRAGMENT)
NADPH oxidase [8]
  inhibition of NADPH oxidase activity: efficiently inhibit

## PPTVPTRPS (HOMO SAPIENS) [peptide A without tat]
NADPH oxidase [8]
  inhibition of NADPH oxidase activity: as efficiently as peptide A
